According to the supplement of paper PMC4862054:

Key:
Settings in all cases: incubation time: 72 h
BT-474 [1] = assay: normalised response (% of control), CellTox Green; higher = less cell death (100 = DMSO, 0 = benzethonium chloride kill control)
Procedure, shortened: (§1)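 Plates were normalised with 0.1 % DMSO as 100 and a positive kill control as 0. Breast cancer cell lines in 20 µl suspension had been seeded into 384-well plates with compound at 5 concentrations in 10-fold steps over a compound-specific 10,000-fold range, incubated 72 h, and read for CellTox Green fluorescence (485/520 nm) followed by CellTiter-Glo luminescence. Each value is the normalised signal at a single concentration.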

BT-549 [2] = assay: as above
Procedure, shortened: as §1

CAL-120 [3] = assay: as above
Procedure, shortened: as §1

CAL-148 [4] = assay: as above
Procedure, shortened: as §1

CAL-51 [5] = assay: as above
Procedure, shortened: as §1

CAL-85-1 [6] = assay: as above
Procedure, shortened: as §1

DU-4475 [7] = assay: as above
Procedure, shortened: as §1

HCC1143 [8] = assay: as above
Procedure, shortened: as §1

HCC1599 [9] = assay: as above
Procedure, shortened: as §1

HCC1937 [10] = assay: as above
Procedure, shortened: as §1

HDQ-P1 [11] = assay: as above
Procedure, shortened: as §1

Hs578T [12] = assay: as above
Procedure, shortened: as §1

MCF-10A [13] = assay: as above
Procedure, shortened: as §1

MDA-MB-231 [14] = assay: as above
Procedure, shortened: as §1

MDA-MB-436 [15] = assay: as above
Procedure, shortened: as §1

MDA-MB-453 [16] = assay: as above
Procedure, shortened: as §1

MDA-MB-468 [17] = assay: as above
Procedure, shortened: as §1

MFM-223 [18] = assay: as above
Procedure, shortened: as §1

BT-474 [19] = assay: normalised response (% of control), CellTiter-Glo; higher = more viable cells (100 = DMSO, 0 = benzethonium chloride kill control)
Procedure, shortened: as §1

BT-549 [20] = assay: as above
Procedure, shortened: as §1

CAL-120 [21] = assay: as above
Procedure, shortened: as §1

CAL-148 [22] = assay: as above
Procedure, shortened: as §1

CAL-51 [23] = assay: as above
Procedure, shortened: as §1

CAL-85-1 [24] = assay: as above
Procedure, shortened: as §1

DU-4475 [25] = assay: as above
Procedure, shortened: as §1

HCC1143 [26] = assay: as above
Procedure, shortened: as §1

HCC1599 [27] = assay: as above
Procedure, shortened: as §1

HCC1937 [28] = assay: as above
Procedure, shortened: as §1

HDQ-P1 [29] = assay: as above
Procedure, shortened: as §1

Hs578T [30] = assay: as above
Procedure, shortened: as §1

MCF-10A [31] = assay: as above
Procedure, shortened: as §1

MDA-MB-231 [32] = assay: as above
Procedure, shortened: as §1

MDA-MB-436 [33] = assay: as above
Procedure, shortened: as §1

MDA-MB-453 [34] = assay: as above
Procedure, shortened: as §1

MDA-MB-468 [35] = assay: as above
Procedure, shortened: as §1

MFM-223 [36] = assay: as above
Procedure, shortened: as §1

SK-BR-3 = assay: as above
Procedure, shortened: as §1

SMILES | normalised response (BT-474 [1]) | normalised response (BT-549 [2]) | normalised response (CAL-120 [3]) | normalised response (CAL-148 [4]) | normalised response (CAL-51 [5]) | normalised response (CAL-85-1 [6]) | normalised response (DU-4475 [7]) | normalised response (HCC1143 [8]) | normalised response (HCC1599 [9]) | normalised response (HCC1937 [10]) | normalised response (HDQ-P1 [11]) | normalised response (Hs578T [12]) | normalised response (MCF-10A [13]) | normalised response (MDA-MB-231 [14]) | normalised response (MDA-MB-436 [15]) | normalised response (MDA-MB-453 [16]) | normalised response (MDA-MB-468 [17]) | normalised response (MFM-223 [18]) | normalised response (BT-474 [19]) | normalised response (BT-549 [20]) | normalised response (CAL-120 [21]) | normalised response (CAL-148 [22]) | normalised response (CAL-51 [23]) | normalised response (CAL-85-1 [24]) | normalised response (DU-4475 [25]) | normalised response (HCC1143 [26]) | normalised response (HCC1599 [27]) | normalised response (HCC1937 [28]) | normalised response (HDQ-P1 [29]) | normalised response (Hs578T [30]) | normalised response (MCF-10A [31]) | normalised response (MDA-MB-231 [32]) | normalised response (MDA-MB-436 [33]) | normalised response (MDA-MB-453 [34]) | normalised response (MDA-MB-468 [35]) | normalised response (MFM-223 [36]) | normalised response (SK-BR-3)
CC(C)(C)Cn1c(N)nc2ccc(-c3[nH]c(C(C)(C)C)nc3-c3ccc(F)cc3)nc21 (100 nM) | 102% | 101% | 103% | 102% | 96.5% | 112% | 103% | 113% | 98.1% | 105% | 109% | 105% | 99.2% | 72.7% | 98% | 102% | 117% | 82.9% | 102% | 105% | 106% | 100% | 92.9% | 99.5% | 103% | 110% | 102% | 92.8% | 88.5% | 102% | 98.4% | 98.6% | 105% | 101% | 95.8% | 104% | 104%
CC[C@H](CC#N)OC(=O)N[C@@H](C)c1cccc(NC(=O)Nc2ccc(-c3cnco3)c(OC)c2)c1 [AVN944] (100 nM) | 73.6% | 102% | 97.7% | 95.8% | 95% | 95.9% | 97.8% | 76.5% | 93.2% | 83% | 83.5% | 98.7% | 67.8% | 85.2% | 90.8% | 70.8% | 73.7% | 93.5% | 86.2% | 67.8% | 93.8% | 94.8% | 83.9% | 81.9% | 97.1% | 92.2% | 82.8% | 90.2% | 85.8% | 111% | 91.9% | 91.3% | 80.1% | 98.2% | 59.9% | 98.2% | 96%
CC(C)C[C@H](NC(=O)[C@H](CCc1ccccc1)NC(=O)CN1CCOCC1)C(=O)N[C@@H](Cc1ccccc1)C(=O)N[C@@H](CC(C)C)C(=O)[C@@]1(C)CO1 [Carfilzomib] (10 nM) | 87.4% | 81.9% | 91.2% | 78.6% | 35.9% | 43.5% | 100% | 90.5% | 111% | 48.8% | 96.5% | 69.9% | 100% | 51.9% | 48.3% | 84.6% | -51.7% | 66.1% | 70.3% | 6.23% | 91.6% | 104% | 60.5% | 37.6% | 102% | 44.4% | 104% | 77% | 83.5% | 63.5% | 119% | 78.8% | 23.4% | 40.7% | 0.56% | 8.07% | 19.1%
CCc1cnn2c(NCc3ccc[n+]([O-])c3)cc(N3CCCC[C@H]3CCO)nc12 [Dinaciclib] (10 nM) | 92% | 95% | 96.6% | 93.2% | 87.1% | 67.9% | 103% | 93.7% | 92% | 107% | 72.3% | -11% | 107% | 36.4% | 54% | 104% | 82.9% | 93.8% | 67.7% | 68.7% | 88.1% | 101% | 65.7% | 24.4% | 89% | 68.5% | 75.8% | 91.2% | 71.2% | 79.9% | 105% | 28.2% | 53.5% | 94.8% | 90.3% | 85.2% | 37.4%
CC(C)C(=O)Nc1ccc([N+](=O)[O-])c(C(F)(F)F)c1 [Flutamide] (100 nM) | 99.8% | 94.1% | 104% | 92.5% | 111% | 89.6% | 99.3% | 68.4% | 96.9% | 57.6% | 105% | 87.2% | 50.2% | 97.2% | 82% | 104% | 124% | 95.8% | 101% | 101% | 98.5% | 100% | 113% | 95% | 104% | 103% | 111% | 94.9% | 98.5% | 98% | 96.8% | 102% | 102% | 109% | 94% | 98% | 95.9%
COc1cc2c(Oc3ccc(NC(=O)C4(C(=O)Nc5ccc(F)cc5)CC4)cc3F)ccnc2cc1OCCCN1CCOCC1 [Foretinib] (10 nM) | 86.5% | 95.3% | 91.5% | 105% | 109% | 107% | 102% | 104% | 102% | 97.2% | 76.9% | 104% | 107% | 102% | 79.1% | 84.9% | 139% | 97.2% | 102% | 105% | 102% | 105% | 119% | 100% | 103% | 99.6% | 112% | 94.7% | 96.8% | 99.2% | 99.5% | 97.7% | 104% | 107% | 104% | 103% | 104%
COc1cc(Nc2ncc(F)c(Nc3ccc4c(n3)N(COP(=O)(O)O)C(=O)C(C)(C)O4)n2)cc(OC)c1OC [Fostamatinib] (25 nM) | 98.7% | 60.2% | 98.4% | 99.6% | 95% | 106% | 99.6% | 100% | 94.1% | 102% | 104% | 101% | 80.9% | 92.3% | 62.8% | 105% | 118% | 78.7% | 97.3% | 104% | 104% | 88.7% | 83% | 98.5% | 95.6% | 101% | 96% | 99.5% | 108% | 93.4% | 100% | 101% | 99.7% | 93.7% | 94.7% | 91.2% | 91.2%
CC[C@@H]1C(=O)N(C)c2cnc(Nc3ccc(C(=O)N[C@H]4CC[C@H](N5CCN(CC6CC6)CC5)CC4)cc3OC)nc2N1C(C)C [Volasertib] (10 nM) | 71.2% | 100% | 91.6% | 86% | 65.5% | 69.5% | 95.3% |  | 91.3% | 53.5% | 87% | 77% |  | 71.8% | 19.6% | 92.4% | 34.3% | 1.2% | 82.6% | 89.8% | 88.5% | 84.4% | 84.2% | 70.4% | 100% | 82% | 106% | 83% | 86.3% | 96.3% | 87.9% | 79.9% | 59.5% | 65.4% | 68.3% | 54.6% | 54.8%
